Reference: patent US11332459B2 (TEIJIN PHARMA LIMITED, priority 2017, dated 2022)
Structures can show the parent of a compound that is named as a salt.

Each molecule was assayed against T1, human TRPC6 (Homo sapiens, UniProt Q9Y210) (assay: TRPC6 calcium flux assay (FLIPR, OAG-stimulated calcium influx)). Settings: HEK293 cells stably transfected with human TRPC6, read-out: hTRPC6 Potency.
T1 construct: expressed in transfected cells
T1 sequence (Q9Y210 1-931): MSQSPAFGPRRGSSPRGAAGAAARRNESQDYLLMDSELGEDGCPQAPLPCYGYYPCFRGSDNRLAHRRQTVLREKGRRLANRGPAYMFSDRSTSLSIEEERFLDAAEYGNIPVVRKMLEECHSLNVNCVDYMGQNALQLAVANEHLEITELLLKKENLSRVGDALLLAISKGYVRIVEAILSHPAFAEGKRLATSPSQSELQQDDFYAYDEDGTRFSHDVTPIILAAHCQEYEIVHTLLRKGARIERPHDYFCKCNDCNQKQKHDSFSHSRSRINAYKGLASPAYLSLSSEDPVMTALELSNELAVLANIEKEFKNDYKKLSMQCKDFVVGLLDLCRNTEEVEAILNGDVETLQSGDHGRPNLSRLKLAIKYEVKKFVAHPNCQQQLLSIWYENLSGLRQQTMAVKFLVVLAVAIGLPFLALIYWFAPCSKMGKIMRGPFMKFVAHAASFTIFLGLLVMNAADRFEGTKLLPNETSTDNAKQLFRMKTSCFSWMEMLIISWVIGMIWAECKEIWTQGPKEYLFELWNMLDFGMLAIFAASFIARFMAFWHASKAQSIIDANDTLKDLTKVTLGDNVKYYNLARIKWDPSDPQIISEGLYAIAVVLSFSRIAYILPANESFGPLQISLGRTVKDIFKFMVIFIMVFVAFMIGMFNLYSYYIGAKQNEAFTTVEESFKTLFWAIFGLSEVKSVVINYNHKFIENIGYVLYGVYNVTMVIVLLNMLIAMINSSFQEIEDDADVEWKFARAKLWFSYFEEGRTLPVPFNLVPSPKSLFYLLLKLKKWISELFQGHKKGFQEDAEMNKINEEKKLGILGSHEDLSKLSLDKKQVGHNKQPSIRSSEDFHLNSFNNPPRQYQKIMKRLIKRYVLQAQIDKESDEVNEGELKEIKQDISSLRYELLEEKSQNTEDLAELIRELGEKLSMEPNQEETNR
Type: cell-based
Outline: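 IC50 derived by plotting background-corrected peak fluorescence (180 s window, normalized to OAG-triggered signal vs buffer) against dose. Stable human TRPC6 HEK293 line was dye-loaded, exposed to compound 25 min, then challenged with 50 uM final OAG in 2 mM Ca2+ HEPES buffer pH 7.2, 0.5% DMSO.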

Row | SMILES | IC50 [nM]
1 | N[C@@H]1CN(c2nc3cc(F)c(F)cc3n2CC(=O)N2CCCc3cccnc32)CC[C@H]1F [Example 630, 2-(2-((3R,4R)-3-amino-4-fluoropiperidin-1-yl)-5,6-difluoro-1H-benzo[d]imidazol-1-yl)-1-(3,4-dihydro-1,8-naphthyridin-1(2H)-yl)ethanone] | 174
2 | N[C@@H]1CN(c2nc3cc(F)c(F)cc3n2Cc2ccc(F)cn2)CC[C@H]1F [Example 228, (3R,4R)-1-(5,6-difluoro-1-((5-fluoropyridin-2-yl)methyl)-1H-benzo[d]imidazol-2-yl)-4-fluoropiperidin-3-amine hydrochloride] | 0.32
3 | C[C@@H](c1ccc(Cl)cn1)n1c(N2CC[C@@H](F)[C@H](N)C2)nc2cc(Cl)ccc21 [Example 220, (3R,4R)-1-(5-chloro-1-((S)-1-(5-chloropyridin-2-yl)ethyl)-1H-benzo[d]imidazol-2-yl)-4-fluoropiperidin-3-amine hydrochloride] | 0.986
4 | N[C@@H]1CCCN(c2nc3ccccc3n2Cc2cc(-c3cccc(Cl)c3)no2)C1 [Example 392, (R)-1-(1-((3-(3-chlorophenyl)isoxazol-5-yl)methyl)-1H-benzo[d]imidazol-2-yl)piperidin-3-amine] | 2240
5 | N[C@@H]1CN(c2nc3cc(C(F)(F)F)ccc3n2CC(=O)N2CCC2)CC[C@@H]1F [Example 309, 2-(2-((3R,4S)-3-amino-4-fluoropiperidin-1-yl)-5-(trifluoromethyl)-1H-benzo[d]imidazol-1-yl)-1-(azetidin-1-yl)ethan-1-one] | 280
6 | C[C@@H](c1cc(F)ccc1F)n1c(N2CC[C@@H](F)[C@H](N)C2)nc2cc(F)c(F)cc21 [Example 335, (3R,4R)-1-(1-((1S)-1-(2,5-difluorophenyl)ethyl)-5,6-difluoro-1H-benzimidazol-2-yl)-4-fluoro-3-piperidinamine] | > 3750
7 | CC(c1ncc(Cl)cn1)n1c(N2CC[C@@H](F)[C@H](N)C2)nc2cc(F)c(F)cc21 (stereo in doubt) [Example 508, (3R,4R)-1-(1-((R)-1-(5-chloropyrimidin-2-yl)ethyl)-5,6-difluoro-1H-benzo[d]imidazol-2-yl)-4-fluoropiperidin-3-amine] | 112
8 | N[C@@H]1CN(c2nc3ccc(C(F)(F)F)cc3n2Cc2ncc(F)cn2)CC[C@@H]1F [Example 305, (3R,4S)-4-fluoro-1-(1-((5-fluoropyrimidin-2-yl)methyl)-6-(trifluoromethyl)-1H-benzo[d]imidazol-2-yl)piperidin-3-amine] | 0.288
9 | N#Cc1ccc(Cn2c(N3CC[C@@H](F)[C@@H](N)C3)nc3ccccc32)cc1 [Example 171, 4-((2-((3S,4R)-3-amino-4-fluoropiperidin-1-yl)-1H-benzo[d]imidazol-1-yl)methyl)benzonitrile] | 544
10 | NC(=O)C1CCN(C(=O)Cn2c(N3CC[C@@H](F)[C@H](N)C3)nc3cc(F)c(F)cc32)CC1 [Example 532, 1-(2-(2-((3R,4R)-3-amino-4-fluoropiperidin-1-yl)-5,6-difluoro-1H-benzo[d]imidazol-1-yl)acetyl)piperidine-4-carbaxamide] | > 3750
11 | N#Cc1ccc2c(c1)nc(N1CC[C@@H](F)[C@H](N)C1)n2Cc1ncc(Br)cn1 [Example 201, 2-((3R,4R)-3-amino-4-fluoropiperidin-1-yl)-1-((5-bromopyrimidin-2-yl)methyl)-1H-benzo[d]imidazole-5-carbonitrile] | 43.9
12 | N[C@@H]1CN(c2nc3ccc(F)cc3n2Cc2ncc(Cl)cn2)CC[C@H]1F [Example 289, (3R,4R)-1-(1-((5-chloropyrimidin-2-yl)methyl)-6-fluoro-1H-benzo[d]imidazol-2-yl)-4-fluoropiperidin-3-amine] | 73.5
13 | CCC1COCCN1C(=O)Cn1c(N2CC[C@@H](F)[C@H](N)C2)nc2ccc(F)cc21 (stereo partly drawn) [Example 684, 2-(2-((3R,4R)-3-amino-4-fluoropiperidin-1-yl)-6-fluoro-1H-benzo[d]imidazol-1-yl)-1-(3-ethylmorpholino)ethan-1-one] | 524
14 | CO[C@@H]1CCN(c2nc3ccc(F)cc3n2CC(=O)N(C)CC(F)(F)F)C[C@H]1N [Example 485, 2-(2-((3R,4R)-3-amino-4-methoxypiperidin-1-yl)-6-fluoro-1H-benzo[d]imidazol-1-yl)-N-methyl-N-(2,2,2-trifluoroethyl)acetamide] | > 3750
15 | C[C@H](c1ccc(C#N)cc1)n1c(N2CCC[C@H](N)C2)nc2ccccc21 [Example 313, 4-((R)-1-(2-((S)-3-aminopiperidin-1-yl)-1H-benzo[d]imidazol-1-yl)ethyl)benzonitrile hydrochloride] | 15800
16 | CC1CCN1C(=O)Cn1c(N2CC[C@@H](F)[C@H](N)C2)nc2ccc(F)cc21 (stereo partly drawn) [Example 677, 2-(2-((3R,4R)-3-amino-4-fluoropiperidin-1-yl)-6-fluoro-1H-benzo[d]imidazol-1-yl)-1-(2-methylazetidin-1-yl)ethan-1-one] | 88.1
17 | CO[C@@H]1CCN(c2nc3cc(F)ccc3n2CC(=O)N(C)CC(F)(F)F)C[C@H]1N [Example 483, 2-(2-((3R,4R)-3-amino-4-methoxypiperidin-1-yl)-5-fluoro-1H-benzo[d]imidazol-1-yl)-N-methyl-N-(2,2,2-trifluoroethyl)acetamide] | 2740
18 | N#Cc1ccc(Cn2c(N3CCC[C@@](N)(CO)C3)nc3ccccc32)nc1 [Example 104, (S)-6-((2-(3-amino-3-(hydroxymethyl)piperidin-1-yl)-1H-benzo[d]imidazol-1-yl)methyl)nicotinonitrile] | 61.8
19 | COCCN(C(=O)Cn1c(N2CC[C@@H](F)[C@H](N)C2)nc2cc(F)c(F)cc21)C1CCS(=O)(=O)C1 (stereo partly drawn) [Example 538, 2-(2-((3R,4R)-3-amino-4-fluoropiperidin-1-yl)-5,6-difluoro-1H-benzo[d]imidazol-1-yl)-N-(1,1-dioxidotetrahydrothiophen-3-yl)-N-(2-methoxyethyl)acetamide] | > 3750
20 | CC(c1ccccn1)N(C)C(=O)Cn1c(N2CC[C@@H](F)[C@H](N)C2)nc2cc(F)c(F)cc21 (mixture of isomers) [Example 608, 2-(2-((3R,4R)-3-amino-4-fluoropiperidin-1-yl)-5,6-difluoro-1H-benzo[d]imidazol-1-yl)-N-methyl-N-(1-(pyridin-2-yl)ethyl)acetamide] | 18.3
21 | C[C@@H](c1ccc(C#N)cc1)n1c(N2CC[C@H](F)[C@H](N)C2)nc2ccccc21 [Example 318, 4-((S)-1-(2-((3R,4S)-3-amino-4-fluoropiperidin-1-yl)-1H-benzo[d]imidazol-1-yl)ethyl)benzonitrile hydrochloride] | 37.7
22 | N[C@@H]1CN(c2nc3cc(F)c(F)cc3n2CC(=O)N2CCC(C(=O)N3CCCCC3)CC2)CC[C@H]1F [Example 536, 2-(2-((3R,4R)-3-amino-4-fluoropiperidin-1-yl)-5,6-difluoro-1H-benzo[d]imidazol-1-yl)-1-(4-(piperidine-1-carbonyl)piperidin-1-yl)ethan-1-one] | > 3750
23 | N#Cc1ccc(Cn2c(N3CCC[C@@]4(CCN4)C3)nc3ccccc32)nc1 [Example 27, (R)-6-((2-(1,6-diazaspiro[3.5]nonan-6-yl)-1H-benzo[d]imidazol-1-yl)methyl)nicotinointrile] | 73.5
24 | CN(CC(F)(F)F)C(=O)Cn1c(N2CC[C@H](F)[C@H](N)C2)nc2ccc(F)cc21 [Example 462, 2-(2-((3R,4S)-3-amino-4-fluoropiperidin-1-yl)-6-fluoro-1H-benzo[d]imidazol-1-yl)-N-methyl-N-(2,2,2-trifluoroethyl)acetamide] | 29.4
25 | C[C@@H](c1ccc(C#N)cn1)n1c(N2CCC[C@H](N)C2)nc2ccccc21 [Example 296, 6-((S)-1-(2-((S)-3-aminopiperidin-1-yl)-1H-benzo[d]imidazol-1-yl)ethyl)nicotinonitrile hydrochloride] | 7.65
26 | N[C@@H]1CN(c2nc3cc(F)c(F)cc3n2Cc2ccc(F)cc2F)CC[C@H]1F [Example 351, (3R,4R)-1-(1-(2,4-difluorobenzyl)-5,6-difluoro-1H-benzimidazol-2-yl)-4-fluoro-3-piperidinamine] | 10.3
27 | N#Cc1ccc(Cn2c(N3CC[C@@](F)(CN)C3)nc3ccccc32)cc1 [Example 174, (R)-4-((2-(3-(aminomethyl)-3-fluoropyrrolidin-1-yl)-1H-benzo[d]imidazol-1-yl)methyl)benzonitrile 2,2,2-trifluoroacetate] | 564
28 | N#Cc1ccc2c(c1)nc(N1CCC(F)(F)[C@H](N)C1)n2Cc1ncc(Cl)cn1 [Example 42, (R)-2-(3-amino-4,4-difluoropiperidin-1-yl)-1-((5-chloropyrimidin-2-yl)methyl)-1H-benzo[d]imidazole-5-carbonitrile] | 1940
